Assay results: ChEMBL document CHEMBL3525899, “Identification of the cytochrome P450 and other enzymes involved in the in vitro oxidative metabolism of a novel antidepressant, Lu AA21004” (Drug Metab Dispos, 2012)

Experiments:
Liver microsome [1] = assay: Drug metabolism in pooled human liver microsomes assessed as formation of 1-(2-(2,4-dimethylphenylsulfinyl)phenyl)piperazine after 30 mins by Michaelis-Menten plot analysis in presence of NADPH regenerating system with NADP+; format: ADME; conditions: 0.5 h, read-out: Km(app)
[2] = target: T1, Flavin-containing monooxygenase 3 (Homo sapiens, UniProt P31513); assay: Activity of human recombinant FMO3 expressed in microsomes isolated from baculovirus infected insect BTI-TN-5B1-4 cells assessed as enzyme-mediated 4-(2-(2,4-dimethylphenylthio)phenyl)piperazin-1-ol formation at 8 to 50 uM after 120 mins by HPLC/MS-MS analysis in presence of NADPH regenerating system with NADP+; format: ADME; conditions: 2 h
T1 sequence (P31513 whole entry): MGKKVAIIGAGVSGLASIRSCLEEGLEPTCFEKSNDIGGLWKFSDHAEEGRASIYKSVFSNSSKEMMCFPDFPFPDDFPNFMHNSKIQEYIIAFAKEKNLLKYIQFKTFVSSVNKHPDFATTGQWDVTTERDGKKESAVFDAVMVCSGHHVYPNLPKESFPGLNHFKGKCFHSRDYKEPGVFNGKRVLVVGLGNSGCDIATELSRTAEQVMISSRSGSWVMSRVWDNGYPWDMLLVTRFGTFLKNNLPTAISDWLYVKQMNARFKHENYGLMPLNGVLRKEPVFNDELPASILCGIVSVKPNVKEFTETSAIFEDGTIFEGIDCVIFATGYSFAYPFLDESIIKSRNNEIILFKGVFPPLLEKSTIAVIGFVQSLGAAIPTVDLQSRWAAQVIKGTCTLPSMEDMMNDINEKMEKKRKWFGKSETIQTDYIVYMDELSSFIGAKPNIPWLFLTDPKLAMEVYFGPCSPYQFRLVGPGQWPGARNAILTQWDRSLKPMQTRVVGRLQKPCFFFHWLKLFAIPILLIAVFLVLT

Liver microsome [3] = assay: Drug metabolism in phenotyped human liver microsomes assessed as formation of 1-(2-(2,4-dimethylphenylsulfinyl)phenyl)piperazine at 8 to 50 uM after 60 mins by HPLC/MS-MS analysis in presence of NADPH regenerating system with NADP+; format: ADME; conditions: 1 h
Cytochrome P450 2C19 = Cytochrome P450 2C19 (Homo sapiens, UniProt P33261); assay: Activity of human recombinant CYP2C19 expressed in microsomes isolated from human AHH-1 cells assessed as enzyme-mediated (3-methyl-4-(2-(piperazin-1-yl)phenylthio)phenyl)methanol formation at 8 to 50 uM after 120 mins by HPLC/MS-MS analysis in presence of NADPH regenerating system with NADP+; format: ADME, cell-free; conditions: 2 h
Chain of Cytochrome P450 2C19 (P33261 whole entry): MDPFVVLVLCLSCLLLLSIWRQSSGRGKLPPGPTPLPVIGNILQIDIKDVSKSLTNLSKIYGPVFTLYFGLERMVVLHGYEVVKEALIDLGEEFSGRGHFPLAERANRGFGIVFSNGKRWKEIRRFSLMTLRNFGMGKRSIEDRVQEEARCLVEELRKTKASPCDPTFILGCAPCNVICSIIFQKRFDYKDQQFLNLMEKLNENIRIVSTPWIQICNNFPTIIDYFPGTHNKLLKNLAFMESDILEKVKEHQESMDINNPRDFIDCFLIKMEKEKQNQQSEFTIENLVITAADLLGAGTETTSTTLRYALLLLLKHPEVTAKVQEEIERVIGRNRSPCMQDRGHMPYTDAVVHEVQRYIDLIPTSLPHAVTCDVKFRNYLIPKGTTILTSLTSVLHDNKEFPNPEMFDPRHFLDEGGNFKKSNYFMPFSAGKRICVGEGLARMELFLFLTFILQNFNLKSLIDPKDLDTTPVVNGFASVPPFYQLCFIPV

Cytochrome P450 3A4 = Cytochrome P450 3A4 (Homo sapiens, UniProt P08684); assay: Activity of human recombinant CYP3A4 expressed in microsomes isolated from human AHH-1 cells assessed as enzyme-mediated 1-(2-(2,4-dimethylphenylsulfinyl)phenyl)piperazine formation at 8 to 50 uM after 120 mins by HPLC/MS-MS analysis in presence of NADPH regenerating system with NADP+; format: ADME, cell-free; conditions: 2 h
Chain of Cytochrome P450 3A4 (P08684 whole entry): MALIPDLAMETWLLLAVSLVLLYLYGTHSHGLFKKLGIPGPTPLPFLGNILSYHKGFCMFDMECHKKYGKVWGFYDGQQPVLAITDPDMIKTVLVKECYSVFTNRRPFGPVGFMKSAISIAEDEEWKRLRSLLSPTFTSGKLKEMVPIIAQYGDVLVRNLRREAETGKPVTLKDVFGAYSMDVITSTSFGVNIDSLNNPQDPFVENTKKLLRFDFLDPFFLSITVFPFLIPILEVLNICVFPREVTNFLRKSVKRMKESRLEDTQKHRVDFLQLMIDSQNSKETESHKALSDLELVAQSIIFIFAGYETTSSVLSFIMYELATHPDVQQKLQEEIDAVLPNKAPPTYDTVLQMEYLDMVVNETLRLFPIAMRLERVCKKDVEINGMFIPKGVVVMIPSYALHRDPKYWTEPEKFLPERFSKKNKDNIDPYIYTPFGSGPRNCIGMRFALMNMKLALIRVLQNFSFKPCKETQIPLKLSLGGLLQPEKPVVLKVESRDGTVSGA

Liver microsome [4] = assay: Drug metabolism in pooled human liver microsomes assessed as formation of 1-(2-(2,4-dimethylphenylsulfinyl)phenyl)piperazine per mg of protein after 30 mins by Michaelis-Menten plot analysis in presence of NADPH regenerating system with NADP+; format: ADME; conditions: 0.5 h
Cytochrome P450 2A6 = target: T2, Cytochrome P450 2A6 (Homo sapiens, UniProt P11509); assay: Activity of human recombinant CYP2A6 expressed in microsomes isolated from human AHH-1 cells assessed as enzyme-mediated 3-(2,4-dimethylphenylthio)-4-(piperazin-1-yl)phenol formation at 8 to 50 uM after 120 mins by HPLC/MS-MS analysis in presence of NADPH regenerating system with NADP+; format: ADME, cell-free; conditions: 2 h
T2 sequence (P11509 whole entry): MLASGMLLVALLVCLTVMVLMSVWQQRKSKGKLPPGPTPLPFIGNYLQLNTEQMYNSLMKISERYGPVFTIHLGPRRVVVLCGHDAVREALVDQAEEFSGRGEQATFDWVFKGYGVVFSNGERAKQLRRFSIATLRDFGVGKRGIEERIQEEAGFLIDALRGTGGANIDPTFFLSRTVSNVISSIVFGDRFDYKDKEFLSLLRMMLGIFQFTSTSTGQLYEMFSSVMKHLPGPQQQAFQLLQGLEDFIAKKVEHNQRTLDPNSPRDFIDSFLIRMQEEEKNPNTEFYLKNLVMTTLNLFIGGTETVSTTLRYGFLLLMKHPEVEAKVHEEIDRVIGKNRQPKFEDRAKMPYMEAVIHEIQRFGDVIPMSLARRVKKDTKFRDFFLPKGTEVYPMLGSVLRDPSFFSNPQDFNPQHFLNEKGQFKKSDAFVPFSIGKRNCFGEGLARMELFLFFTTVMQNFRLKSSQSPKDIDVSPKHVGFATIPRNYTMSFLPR

Liver microsome [5] = assay: Drug metabolism in phenotyped human liver microsomes assessed as formation of 3-methyl-4-(2-(piperazin-1-yl)phenylthio)benzoic acid at 8 to 50 uM after 60 mins by HPLC/MS-MS analysis in presence of NADPH regenerating system with NADP+; format: ADME; conditions: 1 h
Cytochrome P450 2D6 = Cytochrome P450 2D6 (Homo sapiens, UniProt P10635); assay: Activity of human recombinant CYP2D6 expressed in microsomes isolated from human AHH-1 cells assessed as enzyme-mediated 3-(2,4-dimethylphenylthio)-4-(piperazin-1-yl)phenol formation at 8 to 50 uM after 120 mins by HPLC/MS-MS analysis in presence of NADPH regenerating system with NADP+; format: ADME, cell-free; conditions: 2 h
Chain of Cytochrome P450 2D6 (P10635 whole entry): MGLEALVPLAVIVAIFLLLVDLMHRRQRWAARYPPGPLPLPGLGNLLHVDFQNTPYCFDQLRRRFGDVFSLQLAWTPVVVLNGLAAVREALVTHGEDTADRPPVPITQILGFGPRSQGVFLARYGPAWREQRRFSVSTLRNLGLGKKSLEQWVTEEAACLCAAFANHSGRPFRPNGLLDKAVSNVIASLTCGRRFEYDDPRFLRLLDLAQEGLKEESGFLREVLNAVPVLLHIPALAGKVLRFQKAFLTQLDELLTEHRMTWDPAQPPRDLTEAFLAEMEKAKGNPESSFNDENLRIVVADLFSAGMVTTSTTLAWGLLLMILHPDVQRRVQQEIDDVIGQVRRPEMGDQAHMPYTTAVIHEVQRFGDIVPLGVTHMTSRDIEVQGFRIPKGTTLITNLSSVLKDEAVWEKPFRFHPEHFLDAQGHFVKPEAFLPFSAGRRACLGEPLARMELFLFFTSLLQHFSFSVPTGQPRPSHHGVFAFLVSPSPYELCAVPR

Liver microsome [6] = assay: Drug metabolism in pooled human liver microsomes assessed as formation of 1-(2-(2,4-dimethylphenylsulfinyl)phenyl)piperazine at 100 uM after 30 to 180 mins by HPLC/MS-MS analysis in presence of NADPH regenerating system with NADP+; format: ADME
Cytochrome P450 2C8 = target: T3, Cytochrome P450 2C8 (Homo sapiens, UniProt P10632); assay: Activity of human recombinant CYP2C8 expressed in microsomes isolated from human AHH-1 cells assessed as enzyme-mediated 1-(2-(2,4-dimethylphenylsulfinyl)phenyl)piperazine formation at 8 to 50 uM after 120 mins by HPLC/MS-MS analysis in presence of NADPH regenerating system with NADP+; format: ADME, cell-free; conditions: 2 h
T3 sequence (P10632 whole entry): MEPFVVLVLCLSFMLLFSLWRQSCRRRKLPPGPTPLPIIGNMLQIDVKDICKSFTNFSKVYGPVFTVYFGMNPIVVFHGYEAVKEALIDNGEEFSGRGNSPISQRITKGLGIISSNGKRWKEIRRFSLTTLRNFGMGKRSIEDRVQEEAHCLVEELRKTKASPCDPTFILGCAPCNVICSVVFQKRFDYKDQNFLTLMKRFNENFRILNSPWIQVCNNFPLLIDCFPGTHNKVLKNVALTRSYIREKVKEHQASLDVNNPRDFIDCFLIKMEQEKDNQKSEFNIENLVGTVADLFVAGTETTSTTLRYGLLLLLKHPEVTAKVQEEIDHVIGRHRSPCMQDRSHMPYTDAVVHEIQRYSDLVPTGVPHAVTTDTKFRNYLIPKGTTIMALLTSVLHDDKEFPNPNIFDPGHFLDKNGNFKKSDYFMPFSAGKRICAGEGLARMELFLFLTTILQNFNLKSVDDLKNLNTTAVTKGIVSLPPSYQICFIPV

- Km (Liver microsome [1]): ≥ 208 µM
- Drug metabolism [2]: metabolite_not_detected
- Drug metabolism (Liver microsome [3]): metabolite_detected
- Drug metabolism (Cytochrome P450 2C19): metabolite_detected
- Drug metabolism (Cytochrome P450 3A4): metabolite_detected
- Vmax(app) (Liver microsome [4]): >= 227 pmol/min
- Drug metabolism (Cytochrome P450 2A6): metabolite_not_detected
- Drug metabolism (Liver microsome [5]): metabolite_detected
- Drug metabolism (Cytochrome P450 2D6): metabolite_detected
- Drug metabolism (Liver microsome [6]): metabolite_detected
- Drug metabolism (Cytochrome P450 2C8): metabolite_detected
SMILES: Br.Cc1ccc(Sc2ccccc2N2CCNCC2)c(C)c1 [VORTIOXETINE HYDROBROMIDE]
